Results reported in PubChem BioAssay AID1159619 (McMaster CMCB, 2016).
Calls of active or inactive are those of the source. No rule for the calls is given here.

Molecular target: aminoglycoside 2''-nucleotidyltransferase ANT(2'')-Ia (Klebsiella pneumoniae)
Assay: growth inhibition of ANT(2'')-Ia E. coli with gentamicin, ANT(2'')-Ia inhibitor project, OD600 growth (AID 1159619)
Settings: E. coli over-expressing ANT(2'')-Ia with gentamicin, 18 h

Row | outcome | AC50 | Compound
1 | inactive | – | Cc1cc(-c2ccco2)cc(C)c1/C=C/c1cncc(-c2nn[nH]n2)c1
2 | inactive | – | CCn1cc(-c2ccnc3[nH]ccc23)c(-c2cccc(NC(=O)Nc3ccc(OCc4ccccc4)cc3)c2)n1
3 | inactive | – | CCC(=O)Nc1ccc(C)c(-c2ccc(C(=O)NCC3CC3)cc2)c1
4 | inactive | – | CCCN1CCCC(c2ccc(Nc3nc(Nc4cc(F)ccc4C(N)=O)c4cc[nH]c4n3)c(OC)c2)C1 (centres undefined)
5 | inactive | – | O=C1NC(=O)C(c2ccccc2Cl)=C1Nc1cc(Cl)c(O)c(Cl)c1
6 | inactive | – | O=C(Nc1n[nH]c2nc(-c3ccco3)c(Br)cc12)C1CC1
7 | inactive | – | CC1=C(C(=O)Nc2ccc3n[nH]c(C)c3c2)C(c2ccc(C(F)(F)F)cc2)CC(=O)N1 (centres undefined)
8 | inactive | – | Fc1cccc(COc2ccc(Nc3ncncc3C#Cc3ccccc3)cc2Cl)c1
9 | inactive | – | NC(=O)c1cccc(Nc2nccc(Nc3cccc4[nH]ncc34)n2)c1
10 | inactive | – | CC(C)=Cc1cccc2[nH]c(O)c(N=Nc3ccc(S(N)(=O)=O)cc3)c12
11 | inactive | – | CC(C)c1ccc(-c2cc(-c3cn[nH]c3-c3ccccn3)ccn2)cc1
12 | – | 62.4 µM | CS(=O)(=O)CCNCc1ccc(-c2ccc3ncnc(Nc4ccc(OCc5cccc(C(F)(F)F)c5)cc4)c3c2)o1
13 | inactive | – | CN(C)CCOc1ccc(-c2cc(-c3ccc4c(c3)CC/C4=N\O)c(-c3ccncc3)o2)cc1
14 | inactive | – | N#Cc1cccc(Nc2nccc(-c3cnn4ncccc34)n2)c1
15 | inactive | – | COc1ccc(-c2ccncc2)cc1C(N)=O
16 | inactive | – | Cc1ccc(NC(=O)CC2CC2)cc1-c1ccc(C(=O)NCC2CC2)cc1
17 | inactive | – | Nc1nc(-c2ccccn2)c(-c2ccc3ncccc3n2)s1
18 | – | 35.2 µM | NS(=O)(=O)c1cccc(-c2cc3ccncc3cc2OCc2ccccc2)c1
19 | inactive | – | CCn1c(-c2nonc2N)nc2cncc(C(=O)N3CC[C@H](N)C3)c21
20 | inactive | – | Fc1ccc(-c2ncn(C3CCNCC3)c2-c2ccnc(Oc3cccc(C(F)(F)F)c3)n2)cc1
21 | – | 24.3 µM | CN1CCN(Cc2ccc(-c3cc4ncnc(Nc5ccc(OCc6cccc(F)c6)c(Cl)c5)c4s3)o2)CC1
22 | inactive | – | COc1cccc(COc2cc(-n3cnc4ccccc43)sc2C(N)=O)c1
23 | inactive | – | CCc1nccc2c1nc(-c1nonc1N)n2CC
24 | inactive | – | NS(=O)(=O)c1ccc(N=Nc2c(O)[nH]c3ccc(-c4cnco4)cc23)cc1
25 | inactive | – | COc1ccc(COc2ccc(Cc3cnc(N)nc3N)cc2OC)cc1
26 | inactive | – | NC(=O)c1sc(-n2cnc3ccc(C(F)(F)F)cc32)cc1OCc1ccccc1Br
27 | inactive | – | c1ccc(Nc2ncc(-c3ccccc3)o2)cc1
28 | inactive | – | O=C(O[C@H]1CN[C@H](C#Cc2cc3ncnc(Nc4ccc(Cc5ccccc5)cc4)c3s2)C1)N1CCOCC1
29 | inactive | – | c1cnn2ncc(-c3ccnc(NCCCN4CCOCC4)n3)c2c1
